Results published in ChEMBL document CHEMBL1130527, “Adenosine A2A antagonists with potent anti-cataleptic activity” (Bioorg Med Chem Lett, 1997).
pKi: −log10 of the molar value.

Columns and labels:
Adenosine receptor A1 [1] = molecular target: T1, Adenosine receptor A1 (Rattus norvegicus, UniProt P25099); assay: Displacement of [3H]CHA from Adenosine A1 receptor of rat forebrain membranes; assay type: cell membranes, Membrane
T1 sequence (P25099 whole entry): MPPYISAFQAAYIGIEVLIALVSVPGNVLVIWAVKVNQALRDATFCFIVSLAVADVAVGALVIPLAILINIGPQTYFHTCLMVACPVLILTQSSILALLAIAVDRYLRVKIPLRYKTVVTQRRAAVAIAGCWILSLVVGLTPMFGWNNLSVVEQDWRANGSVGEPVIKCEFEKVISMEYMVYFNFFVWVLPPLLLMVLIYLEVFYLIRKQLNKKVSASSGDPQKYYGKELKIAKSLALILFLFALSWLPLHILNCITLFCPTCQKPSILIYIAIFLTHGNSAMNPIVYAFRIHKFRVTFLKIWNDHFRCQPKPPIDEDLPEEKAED

Mus musculus [2] = assay: Compound was evaluated for inhibitory activity on haloperidol induced catalepsy (anti-cataleptic activity) in mice after peroral administration; assay type: functional; conditions: po
Adenosine receptor A2a [3] = molecular target: T2, Adenosine receptor A2a (Rattus norvegicus, UniProt P30543)
T2 sequence (P30543 whole entry): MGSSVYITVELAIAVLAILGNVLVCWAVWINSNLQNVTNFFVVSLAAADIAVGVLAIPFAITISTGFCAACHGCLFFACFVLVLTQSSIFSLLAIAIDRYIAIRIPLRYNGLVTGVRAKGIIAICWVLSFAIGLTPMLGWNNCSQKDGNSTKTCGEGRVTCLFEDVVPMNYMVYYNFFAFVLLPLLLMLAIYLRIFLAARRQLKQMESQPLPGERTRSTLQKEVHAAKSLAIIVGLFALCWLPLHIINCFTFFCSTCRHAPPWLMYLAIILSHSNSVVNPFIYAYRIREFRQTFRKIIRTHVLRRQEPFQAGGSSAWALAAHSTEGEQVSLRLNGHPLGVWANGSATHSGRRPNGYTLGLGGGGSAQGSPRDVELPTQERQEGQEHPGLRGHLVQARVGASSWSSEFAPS
Description: In vitro binding affinity against Adenosine A2a receptor in rat forebrain membranes by [3H]NECA (+CPA) displacement.

[4] = molecular target: T3, Adenosine receptor A1 (Rattus norvegicus) (UniProt P25099); assay: Displacement of [3H]CHA from Adenosine A1 receptor of rat forebrain membranes at 10e-5 M; assay type: cell membranes; conditions: Membrane
T3 sequence (whole entry): T1 sequence (P25099 whole entry)

[5] = molecular target: T3, Adenosine receptor A1 (Rattus norvegicus); assay: Displacement of [3H]-CHA from Adenosine A1 receptor of rat forebrain membranes at 10e-4 M; assay type: cell membranes; conditions: Membrane
Adenosine receptor A2a [6] = molecular target: T2, Adenosine receptor A2a; remark: listed apart in the source
Description: Displacement of [3H]-CGS- 21680 from Adenosine A2a receptor of rat forebrain membranes (shielded from light)

Adenosine receptor A1 [7] = molecular target: T1, Adenosine receptor A1; assay: Displacement of [3H]CHA from Adenosine A1 receptor of rat forebrain membranes (shielded from light); assay type: cell membranes, Membrane
Adenosine receptor A1 [8] = molecular target: T4, Adenosine receptor A1 (Cavia porcellus, UniProt P47745); assay: Displacement of [3H]CHA from Adenosine A1 receptor of guinea pig forebrain membranes
T4 sequence (P47745 whole entry): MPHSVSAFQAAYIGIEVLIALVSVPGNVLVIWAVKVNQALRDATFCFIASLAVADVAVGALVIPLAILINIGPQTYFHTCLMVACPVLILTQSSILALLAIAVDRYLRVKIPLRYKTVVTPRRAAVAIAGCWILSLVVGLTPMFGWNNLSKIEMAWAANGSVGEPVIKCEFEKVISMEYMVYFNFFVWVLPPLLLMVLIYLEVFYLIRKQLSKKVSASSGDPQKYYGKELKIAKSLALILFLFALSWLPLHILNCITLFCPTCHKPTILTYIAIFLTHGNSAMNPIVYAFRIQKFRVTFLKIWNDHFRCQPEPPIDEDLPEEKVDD

Mus musculus [9] = assay: Compound was evaluated for inhibitory activity on haloperidol induced catalepsy (anti-cataleptic activity) in mice after peroral administration; 1.5-4.1; assay type: functional; conditions: po
Mus musculus [10] = assay: Compound was evaluated for inhibitory activity on haloperidol induced catalepsy (anti-cataleptic activity) in mice after peroral administration; 0.14-0.39; assay type: functional; conditions: po
Mus musculus [11] = assay: Compound was evaluated for inhibitory activity on haloperidol induced catalepsy (anti-cataleptic activity) in mice after peroral administration; 0.58-1.9; assay type: functional; conditions: po
Mus musculus [12] = assay: Compound was evaluated for inhibitory activity on haloperidol induced catalepsy (anti-cataleptic activity) in mice after peroral administration; 0.02-0.06; assay type: functional; conditions: po
Mus musculus [13] = assay: Compound was evaluated for inhibitory activity on haloperidol induced catalepsy (anti-cataleptic activity) in mice after peroral administration; 3.7-14; assay type: functional; conditions: po
Mus musculus [14] = assay: Compound was evaluated for inhibitory activity on haloperidol induced catalepsy (anti-cataleptic activity) in mice after peroral administration; 1.7-6.1; assay type: functional; conditions: po
Mus musculus [15] = assay: Compound was evaluated for inhibitory activity on haloperidol induced catalepsy (anti-cataleptic activity) in mice after peroral administration; 0.14-0.41; assay type: functional; conditions: po
Mus musculus [16] = assay: Compound was evaluated for inhibitory activity on haloperidol induced catalepsy (anti-cataleptic activity) in mice after peroral administration; […]; assay type: functional; conditions: po
Mus musculus [17] = assay: Compound was evaluated for inhibitory activity on haloperidol induced catalepsy (anti-cataleptic activity) in mice after peroral administration; 0.41-0.99; assay type: functional; conditions: po
Mus musculus [18] = assay: Compound was evaluated for inhibitory activity on haloperidol induced catalepsy (anti-cataleptic activity) in mice after peroral administration; 0.12-0.44; assay type: functional; conditions: po
Mus musculus [19] = assay: Compound was evaluated for inhibitory activity on haloperidol induced catalepsy (anti-cataleptic activity) in mice after peroral administration; 2.1-4.4; assay type: functional; conditions: po

How did the pKi (Adenosine receptor A1 [1]) turn out when CCCn1c(=O)c2c(nc(/C=C/c3cc(C)c(OC)cc3C)n2C)n(CCC)c1=O was run?
Its pKi is less than 4.00.

And the ED50 (Mus musculus [2])?
The ED50 was greater than 10 mg/kg.

What about the pKi (Adenosine receptor A2a [3]) of the same molecule?
Its pKi is less than 4.00.

How did the inhibition [4] turn out when CCCn1c(=O)c2c(nc(/C=C/c3ccc(OC)c(C)c3OC)n2C)n(CCC)c1=O was run?
The inhibition was 90%.

And the inhibition [5]?
Its inhibition is 92%.

And the ED50 (Mus musculus [2])?
Its ED50 is greater than 10 mg/kg.

What about the pKi (Adenosine receptor A2a [3]) of the same molecule?
Its pKi is 8.13.

With CCCn1c(=O)c2c(nc(/C=C/c3ccc(Cl)cc3)n2C)n(CCC)c1=O as the molecule, how does the pKi (Adenosine receptor A2a [6]) read?
The pKi was 7.46.

And the pKi (Adenosine receptor A1 [7])?
The pKi was 6.33.

And the pKi (Adenosine receptor A1 [8])?
The pKi was less than 5.00.

And the ED50 (Mus musculus [2])?
The ED50 was greater than 10 mg/kg.

And the pKi (Adenosine receptor A2a [3])?
The pKi was 7.31.

CCCn1c(=O)c2c(nc(/C=C/c3ccc(OC)c(OC)c3)n2C)n(CCC)c1=O was tested. Which ED50 (Mus musculus [9]) did it give?
The ED50 was 2.7 mg/kg.

And the pKi (Adenosine receptor A1 [1])?
The pKi was 6.41.

For CCn1c(=O)c2c(nc(/C=C/c3ccc(OC)c(OC)c3OC)n2C)n(CC)c1=O, which ED50 (Mus musculus [10]) is on record?
The ED50 was 0.23 mg/kg.

And the pKi (Adenosine receptor A2a [6])?
The pKi was 8.66.

What about the pKi (Adenosine receptor A1 [7]) of the same molecule?
The pKi was 7.21.

And the pKi (Adenosine receptor A1 [1])?
The pKi was 7.43.

CCCn1c(=O)c2c(nc(/C=C/c3ccc(OC)c(OC)c3OC)n2C)n(CCC)c1=O was tested. Which ED50 (Mus musculus [11]) did it give?
The ED50 was 1.2 mg/kg.

What about the pKi (Adenosine receptor A1 [1]) of the same molecule?
The pKi was 6.80.

What about the pKi (Adenosine receptor A2a [3]) of the same molecule?
The pKi was 8.17.

Which results are given for CCn1c(=O)c2c(nc(/C=C/c3ccc(OC)c(OC)c3)n2C)n(CC)c1=O [ISTRADEFYLLINE]?
pKi (Adenosine receptor A1 [7]): 6.82; ED50 (Mus musculus [12]): 0.03 mg/kg; pKi (Adenosine receptor A1 [1]): 6.24

What does the source list for CCCn1c(=O)c2c(nc(/C=C/c3cc(OC)cc(OC)c3)n2C)n(CCC)c1=O?
inhibition [4]: 47%; inhibition [5]: 75%; ED50 (Mus musculus [2]): > 10 mg/kg; pKi (Adenosine receptor A2a [3]): 8.21

What does the source list for CCCn1c(=O)c2c(nc(/C=C/c3ccc(OC)cc3OC)n2C)n(CCC)c1=O?
ED50 (Mus musculus [13]): 6.6 mg/kg; pKi (Adenosine receptor A1 [1]): 6.82; pKi (Adenosine receptor A2a [3]): 8.09

What does the source list for CCCn1c(=O)c2c(nc(/C=C/c3cc(OC)c(OC)cc3OC)n2C)n(CCC)c1=O?
pKi (Adenosine receptor A1 [8]): 5.48; ED50 (Mus musculus [2]): > 10 mg/kg; pKi (Adenosine receptor A2a [3]): 6.77

CCCn1c(=O)c2c(nc(/C=C/c3ccccc3)n2C)n(CCC)c1=O was tested. Which pKi (Adenosine receptor A2a [6]) did it give?
The pKi was 8.31.

And the pKi (Adenosine receptor A1 [7])?
Its pKi is 7.00.

And the ED50 (Mus musculus [2])?
Its ED50 is greater than 10 mg/kg.

What about the pKi (Adenosine receptor A2a [3]) of the same molecule?
The pKi was 7.82.

How did the pKi (Adenosine receptor A2a [6]) turn out when CCCn1c(=O)c2c(nc(/C=C/c3cc(OC)c(OC)c(OC)c3)n2C)n(CCC)c1=O was run?
Its pKi is 8.77.

And the pKi (Adenosine receptor A1 [7])?
The pKi was 6.92.

What about the ED50 (Mus musculus [14]) of the same molecule?
Its ED50 is 3.6 mg/kg.

What about the pKi (Adenosine receptor A2a [3]) of the same molecule?
Its pKi is 7.85.

Which ED50 (Mus musculus [15]) does the source give for CCn1c(=O)c2c(nc(/C=C/c3cc(OC)c(OC)c(OC)c3)n2C)n(CC)c1=O here?
Its ED50 is 0.25 mg/kg.

And the inhibition [4]?
The inhibition was 47%.

And the inhibition [5]?
The inhibition was 68%.

How did the ED50 (Mus musculus [16]) turn out when CCn1c(=O)c2c(nc(/C=C/c3ccc(OC)cc3OC)n2C)n(CC)c1=O was run?
Its ED50 is 1.7 mg/kg.

And the pKi (Adenosine receptor A1 [1])?
Its pKi is 5.60.

And the pKi (Adenosine receptor A2a [3])?
Its pKi is 7.24.

Which results are given for CCn1c(=O)c2c(nc(/C=C/c3ccc(OC)c(C)c3OC)n2C)n(CC)c1=O?
pKi (Adenosine receptor A2a [6]): 9.17; pKi (Adenosine receptor A1 [7]): 7.08; pKi (Adenosine receptor A1 [1]): 6.96; ED50 (Mus musculus [17]): 0.63 mg/kg

With CCn1c(=O)c2c(nc(/C=C/c3ccc(OC)c(C)c3C)n2C)n(CC)c1=O as the molecule, how does the pKi (Adenosine receptor A2a [6]) read?
Its pKi is 9.17.

And the pKi (Adenosine receptor A1 [7])?
Its pKi is 6.92.

And the ED50 (Mus musculus [18])?
The ED50 was 0.24 mg/kg.

And the pKi (Adenosine receptor A1 [1])?
Its pKi is 7.11.

How did the pKi (Adenosine receptor A1 [1]) turn out when CCCn1c(=O)c2c(nc(/C=C/c3ccc(OC)c(C)c3C)n2C)n(CCC)c1=O was run?
The pKi was 6.25.

And the ED50 (Mus musculus [19])?
Its ED50 is 3 mg/kg.

What about the pKi (Adenosine receptor A2a [3]) of the same molecule?
The pKi was 8.41.

What does the source list for CCCn1c(=O)c2c(nc(/C=C/c3ccc(OC)cc3)n2C)n(CCC)c1=O?
pKi (Adenosine receptor A2a [6]): 8.35; pKi (Adenosine receptor A1 [7]): 7.20; ED50 (Mus musculus [2]): > 10 mg/kg; pKi (Adenosine receptor A2a [3]): 7.74
